These results are taken from publication doi:10.1101/2025.06.03.657556v1 (biorxiv, 2025).

The target of one assay is RhoA (HEK 293F cells) (Homo sapiens, UniProt P61586). The assay is described as follows: fluorescent RhoA-GTP probe, F488/F405 ratio, HEK […] cells. It counts as cell-based.
The target of the next assay is RhoA (Homo sapiens, UniProt P61586). The assay is described as follows: surface plasmon resonance. It counts as binding.

The structures appear in SMILES notation.

Chain of RhoA (P61586 1-190): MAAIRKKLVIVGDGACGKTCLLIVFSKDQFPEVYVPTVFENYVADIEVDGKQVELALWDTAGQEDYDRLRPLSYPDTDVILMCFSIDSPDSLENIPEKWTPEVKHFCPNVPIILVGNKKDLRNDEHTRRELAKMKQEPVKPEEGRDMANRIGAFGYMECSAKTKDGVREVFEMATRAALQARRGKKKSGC
Chain of RhoA (HEK 293F cells) (P61586 1-190): as above

In the case of `CCc1cccc([C@@H](O)CO)c1` [AH001], the IC50 at RhoA (HEK 293F cells) amounted to 25.7 ± 1.18 nM. Besides, at RhoA, the Kd came to 73.2 nM.
